# Experiments:
# Format in all cases: ADME, organism-based
# [1] = Drug uptake in urinary bladder of ddY mouse at 127 +/- 35 MBq/kg, iv measured up to 4.5 mins by microPET image analysis in presence of MATE1 inhibitor pyrimethamine; conditions: in vivo, 0.075 h
# Liver [2] = assay: Biodistribution in liver of ddY mouse at 5.6 +/- 2.1 MBq, iv measured per gram of tissue at 90 mins by gamma-ray counting analysis; conditions: in vivo, 1.5 h
# Mus musculus [3] = assay: Biodistribution in large intestine wall of ddY mouse at 5.6 +/- 2.1 MBq, iv measured per gram of tissue at 60 mins by gamma-ray counting analysis; conditions: in vivo, 1 h
# Mus musculus [4] = assay: Biodistribution in heart wall of ddY mouse at 5.6 +/- 2.1 MBq, iv measured per gram of tissue at 15 mins by gamma-ray counting analysis; conditions: in vivo, 0.25 h
# Mus musculus [5] = assay: Biodistribution in large intestine wall of ddY mouse at 5.6 +/- 2.1 MBq, iv measured per gram of tissue at 45 mins by gamma-ray counting analysis; conditions: in vivo, 0.75 h
# Pancreas = assay: Biodistribution in pancreas of ddY mouse at 5.6 +/- 2.1 MBq, iv measured per gram of tissue at 15 mins by gamma-ray counting analysis; conditions: in vivo, 0.25 h
# Kidney [6] = assay: Biodistribution in kidney of ddY mouse at 5.6 +/- 2.1 MBq, iv measured per gram of tissue at 15 mins by gamma-ray counting analysis; conditions: in vivo, 0.25 h
# Mus musculus [7] = assay: Biodistribution in urinary bladder of ddY mouse at 14.6 +/- 2.1 MBq, iv measured per gram of tissue at 5 mins by PET image analysis; conditions: in vivo
# Mus musculus [8] = assay: Biodistribution in remaining body parts of ddY mouse at 5.6 +/- 2.1 MBq, iv measured per gram of tissue at 45 mins by gamma-ray counting analysis; conditions: in vivo, 0.75 h
# Liver [9] = assay: Biodistribution in liver of ddY mouse at 5.6 +/- 2.1 MBq, iv measured per gram of tissue at 45 mins by gamma-ray counting analysis; conditions: in vivo, 0.75 h
# Mus musculus [10] = assay: Biodistribution in large intestine wall of ddY mouse at 5.6 +/- 2.1 MBq, iv measured per gram of tissue at 30 mins by gamma-ray counting analysis; conditions: in vivo, 0.5 h
# Mus musculus [11] = assay: Biodistribution in urinary bladder/urine of ddY mouse at 5.6 +/- 2.1 MBq, iv measured per gram of tissue at 35 mins by gamma-ray counting analysis; conditions: in vivo
# Kidney [12] = assay: Biodistribution in kidney of ddY mouse at 5.6 +/- 2.1 MBq, iv measured per gram of tissue at 90 mins by gamma-ray counting analysis; conditions: in vivo, 1.5 h
# Mus musculus [13] = assay: Biodistribution in remaining body parts of ddY mouse at 5.6 +/- 2.1 MBq, iv measured per gram of tissue at 30 mins by gamma-ray counting analysis; conditions: in vivo, 0.5 h
# Mus musculus [14] = assay: Biodistribution in remaining body parts of ddY mouse at 14.6 +/- 2.1 MBq, iv measured per gram of tissue at 5 mins by PET image analysis; conditions: in vivo
# Mus musculus [15] = assay: Biodistribution in stomach wall of ddY mouse at 5.6 +/- 2.1 MBq, iv measured per gram of tissue at 35 mins by gamma-ray counting analysis; conditions: in vivo
# Mus musculus [16] = assay: Biodistribution in heart wall of ddY mouse at 5.6 +/- 2.1 MBq, iv measured per gram of tissue at 90 mins by gamma-ray counting analysis; conditions: in vivo, 1.5 h
# Mus musculus [17] = assay: Biodistribution in small intestine wall of ddY mouse at 5.6 +/- 2.1 MBq, iv measured per gram of tissue at 30 mins by gamma-ray counting analysis; conditions: in vivo, 0.5 h
# Liver [18] = assay: Biodistribution in liver of ddY mouse at 14.6 +/- 2.1 MBq, iv measured per gram of tissue at 5 mins by PET image analysis; conditions: in vivo
# Kidney [19] = assay: Biodistribution in kidney of ddY mouse at 14.6 +/- 2.1 MBq, iv measured per gram of tissue at 14 mins by PET image analysis; conditions: in vivo
# Mus musculus [20] = assay: Biodistribution in small intestine wall of ddY mouse at 5.6 +/- 2.1 MBq, iv measured per gram of tissue at 35 mins by gamma-ray counting analysis; conditions: in vivo
# Lung [21] = assay: Biodistribution in lung of ddY mouse at 5.6 +/- 2.1 MBq, iv measured per gram of tissue at 60 mins by gamma-ray counting analysis; conditions: in vivo, 1 h
# Mus musculus [22] = assay: Biodistribution in urinary bladder of ddY mouse at 14.6 +/- 2.1 MBq, iv measured per gram of tissue at 14 mins by PET image analysis; conditions: in vivo
# Mus musculus [23] = assay: Biodistribution in heart wall of ddY mouse at 5.6 +/- 2.1 MBq, iv measured per gram of tissue at 35 mins by gamma-ray counting analysis; conditions: in vivo
# Mus musculus [24] = assay: Biodistribution in heart wall of ddY mouse at 5.6 +/- 2.1 MBq, iv measured per gram of tissue at 45 mins by gamma-ray counting analysis; conditions: in vivo, 0.75 h
# Mus musculus [25] = assay: Biodistribution in stomach wall of ddY mouse at 5.6 +/- 2.1 MBq, iv measured per gram of tissue at 90 mins by gamma-ray counting analysis; conditions: in vivo, 1.5 h
# Liver [26] = assay: Metabolic stability in liver of mouse at 5 +/- 2.3 MBq/kg, iv measured until 30 to 60 mins by HPLC analysis in presence of MATE1 inhibitor pyrimethamine; conditions: in vivo
# Mus musculus [27] = assay: Biodistribution in remaining body parts of ddY mouse at 5.6 +/- 2.1 MBq, iv measured per gram of tissue at 60 mins by gamma-ray counting analysis; conditions: in vivo, 1 h
# Lung [28] = assay: Biodistribution in lung of ddY mouse at 5.6 +/- 2.1 MBq, iv measured per gram of tissue at 45 mins by gamma-ray counting analysis; conditions: in vivo, 0.75 h
# Spleen [29] = assay: Biodistribution in spleen of ddY mouse at 5.6 +/- 2.1 MBq, iv measured per gram of tissue at 60 mins by gamma-ray counting analysis; conditions: in vivo, 1 h
# [30] = Metabolic stability in urine of mouse at 5 +/- 2.3 MBq/kg, iv measured until 30 to 60 mins by HPLC analysis in presence of MATE1 inhibitor pyrimethamine; conditions: in vivo
# Mus musculus [31] = assay: Biodistribution in heart wall of ddY mouse at 5.6 +/- 2.1 MBq, iv measured per gram of tissue at 60 mins by gamma-ray counting analysis; conditions: in vivo, 1 h
# Mus musculus [32] = assay: Biodistribution in stomach wall of ddY mouse at 5.6 +/- 2.1 MBq, iv measured per gram of tissue at 60 mins by gamma-ray counting analysis; conditions: in vivo, 1 h
# Spleen [33] = assay: Biodistribution in spleen of ddY mouse at 5.6 +/- 2.1 MBq, iv measured per gram of tissue at 45 mins by gamma-ray counting analysis; conditions: in vivo, 0.75 h
# Lung [34] = assay: Biodistribution in lung of ddY mouse at 5.6 +/- 2.1 MBq, iv measured per gram of tissue at 30 mins by gamma-ray counting analysis; conditions: in vivo, 0.5 h
# Spleen [35] = assay: Biodistribution in spleen of ddY mouse at 5.6 +/- 2.1 MBq, iv measured per gram of tissue at 15 mins by gamma-ray counting analysis; conditions: in vivo, 0.25 h
# Mus musculus [36] = assay: Biodistribution in urinary bladder/urine of ddY mouse at 5.6 +/- 2.1 MBq, iv measured per gram of tissue at 90 mins by gamma-ray counting analysis; conditions: in vivo, 1.5 h
structure (smiles),measurement,setting,value
CN([11CH3])C(=N)NC(=N)N,Drug uptake,[1],Active
same,Drug uptake,Liver [2],1.288 %ID
same,Drug uptake,Mus musculus [3],0.395 %ID
same,Drug uptake,Mus musculus [4],0.102 %ID
same,Drug uptake,Mus musculus [5],0.208 %ID
same,Drug uptake,Pancreas,0.295 %ID
same,Drug uptake,Kidney [6],1.181 %ID
same,Drug uptake,Mus musculus [7],37.19 %ID
same,Drug uptake,Mus musculus [8],17.28 %ID
same,Drug uptake,Liver [9],0.827 %ID
same,Drug uptake,Mus musculus [10],0.352 %ID
same,Drug uptake,Mus musculus [11],74.695 %ID
same,Drug uptake,Kidney [12],0.236 %ID
same,Drug uptake,Mus musculus [13],18.728 %ID
same,Drug uptake,Mus musculus [14],51.908 %ID
same,Drug uptake,Mus musculus [15],0.091 %ID
same,Drug uptake,Mus musculus [16],0.041 %ID
same,Drug uptake,Mus musculus [17],3.165 %ID
same,Drug uptake,Liver [18],4.327 %ID
same,Drug uptake,Kidney [19],4.906 %ID
same,Drug uptake,Mus musculus [20],2.06 %ID
same,Drug uptake,Lung [21],0.136 %ID
same,Drug uptake,Mus musculus [22],56.419 %ID
same,Drug uptake,Mus musculus [23],0.049 %ID
same,Drug uptake,Mus musculus [24],0.029 %ID
same,Drug uptake,Mus musculus [25],0.14 %ID
same,Stability,Liver [26],Stable
same,Drug uptake,Mus musculus [27],23.827 %ID
same,Drug uptake,Lung [28],0.135 %ID
same,Drug uptake,Spleen [29],0.139 %ID
same,Stability,[30],Stable
same,Drug uptake,Mus musculus [31],0.038 %ID
same,Drug uptake,Mus musculus [32],0.169 %ID
same,Drug uptake,Spleen [33],0.123 %ID
same,Drug uptake,Lung [34],0.218 %ID
same,Drug uptake,Spleen [35],0.144 %ID
same,Drug uptake,Mus musculus [36],59.056 %ID
